Measurements taken from the supplement of paper PMC10331698.
± gives the standard deviation of the averaged measurements.

Legend:
Experiment in all cases: level (log10 ratio to DMSO vehicle control); higher = higher biomarker level / cell amount than vehicle control
Settings in all cases: in DMSO
[1] = compound: O=C(O)C(F)(F)OC(F)(F)C(F)(F)OC(F)(F)C(=O)O [Perfluoro-3,6-dioxaoctane-1,8-dioic acid]
Experimental: (§1)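 BioMAP Diversity Plus panel of 12 human primary cell co-culture systems (3C, 4H, LPS, SAg, BT, BF4T, BE3C, CASM3C, HDF3CGF, KF3CT, MyoF, Mphg). Compounds were added 1 h before stimulation and left for 24 h (MyoF 48 h; BT 72 h for soluble read-outs or 6 d for IgG). Biomarkers were read by ELISA, cytotoxicity by SRB, PBMC viability and proliferation by Alamar Blue. Each well value was divided by the mean of 8 DMSO control wells on the same plate and log10 transformed; duplicate blinded samples were tested at 4 concentrations.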

[2] = compound: FC(F)(F)C(F)(C(F)(F)F)C(F)(F)C(F)(F)CC1CO1 [3-(Perfluoro-3-methylbutyl)-1,2-propenoxide]
Experimental: as §1

[3] = compound: CCN(CCO)S(=O)(=O)C(F)(F)C(F)(F)C(F)(F)C(F)(F)C(F)(F)C(F)(F)C(F)(F)C(F)(F)F [N-Ethyl-N-(2-hydroxyethyl)perfluorooctanesulfonamide]
Experimental: as §1

Perfluoropentanoic acid = compound: O=C(O)C(F)(F)C(F)(F)C(F)(F)C(F)(F)F [Perfluoropentanoic acid]
Experimental: as §1

Perfluoropropanoic acid = compound: O=C(O)C(F)(F)C(F)(F)F [Perfluoropropanoic acid]
Experimental: as §1

[4] = compound: OCCC(F)(F)C(F)(F)C(F)(F)C(F)(F)C(F)(F)C(F)(F)F [6:2 Fluorotelomer alcohol]
Experimental: as §1

Heptafluorobutyramide = compound: NC(=O)C(F)(F)C(F)(F)C(F)(F)F [Heptafluorobutyramide]
Experimental: as §1

| Test System | level (log10) ([1]; 6700 nM) | level (log10) ([1]; 20000 nM) | level (log10) ([1]; 60000 nM) | level (log10) ([2]; 6700 nM) | level (log10) ([2]; 20000 nM) | level (log10) ([3]; 6700 nM) | level (log10) ([3]; 20000 nM) | level (log10) (Perfluoropentanoic acid; 6700 nM) | level (log10) (Perfluoropentanoic acid; 20000 nM) | level (log10) (Perfluoropentanoic acid; 60000 nM) | level (log10) (Perfluoropropanoic acid; 6700 nM) | level (log10) (Perfluoropropanoic acid; 20000 nM) | level (log10) (Perfluoropropanoic acid; 60000 nM) | level (log10) ([4]; 6700 nM) | level (log10) ([4]; 20000 nM) | level (log10) (Heptafluorobutyramide; 6700 nM) | level (log10) (Heptafluorobutyramide; 20000 nM) | level (log10) (Heptafluorobutyramide; 60000 nM) |
| --- | --- | --- | --- | --- | --- | --- | --- | --- | --- | --- | --- | --- | --- | --- | --- | --- | --- | --- |
| BE3C:CD87/uPAR | -0.0105 ± 0.005 | -0.0215 ± 0.012 | 0.008 ± 0.03 | 0.01 ± 0.011 | -0.008 ± 0.0057 | 0.012 ± 0.016 | -0.024 ± 0.028 | -0.0035 ± 0.063 | -0.0235 ± 0.026 | 0.024 ± 0.0014 | -0.018 ± 0.0085 | -0.026 ± 0.0085 | 0.01 ± 0.0014 | 0.005 ± 0.031 | -0.0155 ± 0.012 | 0.043 ± 0.04 | 0.0155 ± 0.016 | -0.019 ± 0.017 |
| 4H:SRB | -0.0115 ± 0.0078 | -0.0115 ± 0.022 | -0.003 ± 0.027 | 0 ± 0.025 | -0.019 ± 0.0071 | -0.016 ± 0.0057 | -0.0605 ± 0.029 | -0.0125 ± 0.00071 | -0.0065 ± 0.016 | -0.0025 ± 0.021 | 0 ± 0.0028 | -0.002 ± 0.0071 | 0.0095 ± 0.0092 | -0.011 ± 0.024 | -0.006 ± 0.024 | -0.0275 ± 0.026 | -0.0165 ± 0.0035 | -0.006 ± 0.018 |
| LPS:SRB | 0.007 ± 0.011 | 0.005 ± 0.021 | 0.0115 ± 0.025 | 0 ± 0.0042 | -0.0035 ± 0.005 | -0.0345 ± 0.0035 | -0.084 ± 0.02 | 0.0015 ± 0.0078 | 0.004 | 0.003 ± 0.0085 | -0.0125 ± 0.00071 | -0.0035 ± 0.013 | -0.0065 ± 0.0064 | 0.0095 ± 0.0078 | 0.004 ± 0.0071 | -0.0115 ± 0.015 | -0.009 ± 0.0071 | -0.002 ± 0.0071 |
| LPS:CD141/Thrombomodulin | 0.0085 ± 0.019 | 0.0165 ± 0.0092 | 0.003 ± 0.027 | 0.0355 ± 0.0035 | 0.019 ± 0.034 | 0.117 ± 0.0042 | 0.201 | -0.0115 ± 0.047 | -0.045 ± 0.073 | -0.0085 ± 0.11 | -0.003 ± 0.027 | -0.007 ± 0.0057 | 0.013 ± 0.0057 | 0.002 ± 0.024 | 0.013 ± 0.0042 | -0.018 ± 0.05 | -0.0175 ± 0.064 | -0.0175 ± 0.035 |
| LPS:CD69 | -0.004 ± 0.0071 | 0.003 ± 0.017 | 0.0165 ± 0.022 | -0.023 ± 0.027 | -0.004 ± 0.0057 | -0.134 ± 0.0028 | -0.226 ± 0.0042 | 0.007 ± 0.011 | -0.0305 ± 0.013 | -0.0135 ± 0.083 | -0.001 ± 0.023 | 0.0035 ± 0.012 | 0.005 ± 0.027 | -0.006 ± 0.04 | 0 | 0.028 ± 0.076 | -0.0065 ± 0.056 | -0.009 ± 0.069 |
| BT:sIL-17A | -0.0535 ± 0.049 | 0.154 ± 0.19 | 0.0055 ± 0.047 | 0.135 ± 0.0092 | -0.0585 ± 0.032 | 0.122 ± 0.083 | -0.631 ± 0.21 | 0.0585 ± 0.042 | -0.0535 ± 0.0078 | 0.055 ± 0.13 | 0.0325 ± 0.0064 | -0.051 ± 0.12 | -0.065 ± 0.15 | 0.0375 ± 0.015 | -0.0005 ± 0.11 | -0.0055 ± 0.22 | -0.177 ± 0.22 | 0.058 ± 0.082 |
| LPS:CD142/Tissue Factor | 0.034 ± 0.038 | 0.0025 ± 0.016 | 0.015 ± 0.061 | -0.017 ± 0.088 | 0.031 ± 0.096 | 0.139 ± 0.038 | 0.312 ± 0.037 | 0.006 ± 0.0099 | -0.007 ± 0.051 | 0.031 ± 0.099 | 0.001 ± 0.0028 | 0.0055 ± 0.028 | 0.0235 ± 0.0078 | 0.0285 ± 0.026 | -0.007 ± 0.013 | -0.0035 ± 0.028 | 0.002 ± 0.061 | -0.0245 ± 0.047 |
| 3C:CD87/uPAR | 0.016 ± 0.044 | -0.013 ± 0.013 | 0.0195 ± 0.011 | -0.0085 ± 0.00071 | -0.003 ± 0.0028 | -0.047 ± 0.027 | -0.124 ± 0.046 | -0.003 ± 0.021 | -0.0045 ± 0.021 | -0.0105 ± 0.015 | -0.008 ± 0.011 | -0.005 ± 0.011 | 0.0125 ± 0.013 | -0.0205 ± 0.059 | -0.0095 ± 0.042 | -0.014 ± 0.082 | -0.0435 ± 0.07 | -0.0375 ± 0.066 |
| SAg:CXCL9/MIG | -0.0065 ± 0.005 | 0.004 ± 0.0057 | -0.001 ± 0.013 | -0.0255 ± 0.005 | -0.002 ± 0.018 | -0.0135 ± 0.005 | -0.0075 ± 0.013 | -0.0115 ± 0.0078 | -0.014 ± 0.0099 | 0.004 ± 0.021 | -0.0015 ± 0.0078 | 0.012 ± 0.0057 | 0.0025 ± 0.022 | -0.0095 ± 0.0021 | -0.0055 ± 0.00071 | 0.0075 ± 0.0021 | -0.0025 ± 0.012 | 0.0005 ± 0.013 |
| LPS:CD106/VCAM-1 | 0.011 ± 0.013 | -0.007 ± 0.0028 | -0.009 ± 0.021 | -0.0085 ± 0.019 | 0.015 ± 0.013 | -0.0195 ± 0.023 | -0.0395 ± 0.012 | 0.005 ± 0.013 | 0.004 ± 0.0057 | 0.0035 ± 0.023 | -0.0105 ± 0.018 | -0.008 ± 0.02 | -0.0055 ± 0.022 | -0.0045 ± 0.0078 | -0.0025 ± 0.011 | 0.0005 ± 0.005 | -0.0005 ± 0.012 | -0.0145 ± 0.029 |
